Measured values reported in PMC3369218 (Biochemistry, 2012).
Like-named read-outs stand apart in the source and are kept apart here.

How the values were obtained:
WT DaCld = WT DaCld (Dechloromonas aromatica, UniProt Q47CX0); assay: Equilibrium binding of ligands, spectrophotometric titration, WT DaCld
DaCld(R183K) = DaCld(R183K) (Dechloromonas aromatica, UniProt Q47CX0, R217K); assay: biochemical; assay type: binding
DaCld(R183A) = DaCld(R183A) (Dechloromonas aromatica, UniProt Q47CX0, R217A); assay: biochemical; assay type: binding
DaCld(R183Q) = DaCld(R183Q) (Dechloromonas aromatica, UniProt Q47CX0, R217Q); assay: biochemical; assay type: binding
[1] = cited from earlier work

Sequence of DaCld(R183Q) (Q47CX0 35-282 R217Q): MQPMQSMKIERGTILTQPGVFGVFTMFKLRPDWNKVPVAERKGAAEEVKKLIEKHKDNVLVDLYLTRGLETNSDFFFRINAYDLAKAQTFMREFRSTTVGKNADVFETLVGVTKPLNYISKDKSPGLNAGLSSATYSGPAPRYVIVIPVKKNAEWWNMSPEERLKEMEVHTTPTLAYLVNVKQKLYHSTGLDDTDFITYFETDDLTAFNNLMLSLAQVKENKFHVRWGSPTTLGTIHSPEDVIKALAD
Sequence of WT DaCld (Q47CX0 32-282): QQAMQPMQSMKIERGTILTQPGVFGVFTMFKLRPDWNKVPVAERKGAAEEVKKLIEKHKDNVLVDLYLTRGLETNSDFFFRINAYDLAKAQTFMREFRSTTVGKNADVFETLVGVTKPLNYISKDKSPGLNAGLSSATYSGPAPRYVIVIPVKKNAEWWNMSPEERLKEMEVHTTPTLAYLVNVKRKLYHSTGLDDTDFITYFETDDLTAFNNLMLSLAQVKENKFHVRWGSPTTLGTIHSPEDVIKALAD
Sequence of DaCld(R183A) (Q47CX0 35-282 R217A): as the sequence (Q47CX0 35-282 R217Q) above, with Q183A counted along it
Sequence of DaCld(R183K) (Q47CX0 35-282 R217K): as the sequence (Q47CX0 35-282 R217Q) above, with Q183K counted along it

## [N-]=[N+]=[N-] [N3^–, azide]
WT DaCld; read-out: Maximal KD, pH 7
  Kd: 8.3 ± 0.1 µM

## c1c[nH]cn1 [imidazole]
DaCld(R183K)
  Kd: 18 ± 1 µM
DaCld(R183A)
  Kd: 21 ± 1 µM
  pKa1 of pKD versus pH curve: 6.8 ± 0.1
WT DaCld
  Kd: 9.6 ± 0.3 µM
DaCld(R183Q)
  Kd: 27 ± 1 µM
  pKa1 of pKD versus pH curve: 6.7 ± 0.1

## Myoglobin
[1]
  reduction potential: 46 mV
